Measured values from the NIST ThermoML archive (doi:10.1021/je301001g).

Conditions: for surface tension liquid-gas: Maximal bubble pressure; for mass density / electrical conductivity / viscosity: 101.33 kPa, Liquid; for mass density: Buoyancy - hydrostatic balance; for electrical conductivity: MP522 conductivity instrument; for viscosity: Capillary tube (Ostwald / Ubbelohde) method

CCCCNC(=O)C[n+]1ccn(CC)c1.O=S(=O)([N-]S(=O)(=O)C(F)(F)F)C(F)(F)F
Conditions | electrical conductivity [S/m] | mass density [kg/m3] | surface tension liquid-gas [mN/m] | viscosity [mPa·s]
283.15 K | 0.00606 | 1431 | 32.7 | –
288.15 K | 0.00985 | 1427 | 32.4 | –
293.15 K | 0.0153 | 1422.7 | 32.2 | –
298.15 K | 0.0233 | 1418 | 31.8 | 777.5
303.15 K | 0.0332 | 1413.5 | 31.6 | 517.3
308.15 K | 0.0467 | 1409 | 31 | 359
313.15 K | 0.0639 | 1404.4 | 30.8 | 255.2
318.15 K | 0.0854 | 1399.7 | 30.5 | 187.9
323.15 K | 0.111 | 1395.4 | 30.3 | 138.9
328.15 K | 0.141 | 1391 | 29.8 | 106
333.15 K | 0.177 | 1386.7 | 29.4 | 82.1
338.15 K | 0.219 | 1382.3 | 29 | 64.4
343.15 K | – | – | – | 53.3
348.15 K | – | – | – | 43.5
353.15 K | – | – | – | 35.8
358.15 K | – | – | – | 30
363.15 K | – | – | – | 25.3
